# Reference: US8642601B2, “Inhibitors of JNK” (Roche Palo Alto LLC, priority 2010, dated 2014)
# Counter-ions that a name gives are not always drawn.
# What was measured:
# [1] = test system: T1, JNK; assay: JNK Assay in vitro (phosphorylation of GST-ATF2 (19-96) with [γ-33P] ATP); type: biochemical; conditions: JNK isoform not stated for Table 1 (method describes human JNK1α1, JNK2α2, JNK3); Km concentrations of ATP and substrate
# T1 construct: Human JNK2α2 assay contains 1 nM enzyme; Human JNK1α1 assay contains 2 nM enzyme
# Experimental: JNK activity was measured by phosphorylation of GST-ATF2 (19-96) with [γ-^33P] ATP. The enzyme reaction was conducted at Km concentrations of ATP and the substrate at final volume of 40 μl in buffer containing 25 mM HEPES, pH 7.5, 2 mM dithiothreitol, 150 mM NaCl, 20 mM MgCl2, 0.001% Tween® 20, 0.1% BSA and 10% DMSO. Human JNK2α2 assay contains 1 nM enzyme, 1 μM ATF2, 8 μM ATP with 1 uCi [γ-^33P] ATP. Human JNK1α1 assay contains 2 nM enzyme, 1 μM ATF2, 6 μM ATP with 1 μCi [γ-^33P] ATP. Human JNK3 (Upstate Biotech #14-501M) assay contains 2 nM enzyme, 1 μM ATF2, 4 μM ATP with 1 μCi [γ-^33P] ATP. The enzyme assay was carried out in the presence or absence of several compound concentrations. JNK and compound were pre-incubated for 10 min., followed by initiation of the enzymatic reaction by adding ATP and the substrate. The reaction mixture was incubated at 30° C. for 30 min. At the end of incubation, the reaction was terminated by transferring 25 μl of the reaction mixture to 150 μl of 10% glutathione Sepharose® slurry (Amersham #27-4574-01) containing 135 mM EDTA. The reaction product was captured on the affinity resin, and washed on a filtration plate (Millipore, MABVNOB50) with phosphate buffered saline for six times to remove free radionucleotide. The incorporation of ^33P into ATF2 was quantified on a microplate scintillation counter (Packard Topcount). Compound inhibition potency on JNK was measured by IC50 value generated from ten concentration inhibition curves fitted into the 3-parameter model: % inhibition=Maximum/(1+(IC50/[Inhibitor])^slope). Data were analyzed on Microsoft Excel for parameter estimation.
melting point [°C],IC50 [1] [nM],Structure (SMILES)
180 to 185,–,"CCN1CCC[C@@H](NC(=O)[C@H]2CC[C@H](Nc3nccc(-n4ccc5c(OCCCS(C)(=O)=O)cccc54)n3)CC2)C1 (as salt: HCl) [Compound 15, 4-{4-[4-(3-Methanesulfonyl-propoxy)-indol-1-yl]-pyrimidin-2-ylamino}-cyclohexanecarboxylic acid ((R)-1-ethyl-piperidin-3-yl)-amide]"
–,59.7,"C[C@@H]1CN(C(=O)[C@H]2CC[C@H](Nc3nccc(-n4ncc5c(OCCCS(C)(=O)=O)cccc54)n3)CC2)CCN1 [Compound 24, (4-{4-[4-(3-Methanesulfonyl-propoxy)-indazol-1-yl]-pyrimidin-2-ylamino}-cyclohexyl)-((R)-3-methyl-piperazin-1-yl)-methanone]"
–,89.8,"CCCN1CCC[C@H](NC(=O)[C@H]2CC[C@H](Nc3nccc(-n4ccc5c(OCCCS(C)(=O)=O)cccc54)n3)CC2)C1 (stereo in doubt) [Compound 14, 4-{4-[4-(3-Methanesulfonyl-propoxy)-indol-1-yl]-pyrimidin-2-ylamino}-cyclohexanecarboxylic acid ((R)-1-propyl-piperidin-3-yl)-amide]"
–,92.8,"CCN1CCCC(NC(=O)[C@H]2CC[C@H](Nc3nccc(-n4ccc5c(OCC6CCS(=O)(=O)C6)cccc54)n3)CC2)C1 (some centres unmarked) [Compound 29, 4-{4-[4-(1,1-Dioxo-tetrahydro-1λ^6-thiophen-3-ylmethoxy)-indol-1-yl]-pyrimidin-2-ylamino}-cyclohexanecarboxylic acid (1-ethyl-piperidin-3-yl)-amide]"
> 300,–,"CC1(C)CN(C(=O)[C@H]2CC[C@H](Nc3nccc(-n4ccc5c(OCC6CCS(=O)(=O)C6)cccc54)n3)CC2)CCN1 (some centres unmarked) (as salt: HCl) [Compound 28, (3,3-Dimethyl-piperazin-1-yl)-(4-{4-[4-(1,1-dioxo-tetrahydro-1λ^6-thiophen-3-ylmethoxy)-indol-1-yl]-pyrimidin-2-ylamino}-cyclohexyl)-methanone]"
–,81,"CCN1CCCC1CNC(=O)[C@H]1CC[C@H](Nc2nccc(-n3ccc4c(OCCCS(C)(=O)=O)cccc43)n2)CC1 (some centres unmarked) [Compound 20, 4-{4-[4-(3-Methanesulfonyl-propoxy)-indol-1-yl]-pyrimidin-2-ylamino}-cyclohexanecarboxylic acid (1-ethyl-pyrrolidin-2-ylmethyl)-amide]"
–,60.6,"C[C@H]1CN(C(=O)[C@H]2CC[C@H](Nc3nccc(-n4ncc5c(OCC6CCS(=O)(=O)C6)cccc54)n3)CC2)CCN1 (stereo partly drawn) [Compound 27, (4-{4-[4-(1,1-Dioxo-tetrahydro-1λ^6-thiophen-3-ylmethoxy)-indazol-1-yl]-pyrimidin-2-ylamino}-cyclohexyl)-((S)-3-methyl-piperazin-1-yl)-methanone]"
–,145,"CS(=O)(=O)CCCOc1cccc2c1ccn2-c1ccnc(N[C@H]2CC[C@H](C(=O)N3C[C@@H]4C[C@@H]3CN4)CC2)n1 [Compound 21, (1R,4S)-2,5-Diaza-bicyclo[2.2.1]hept-2-yl-(4-{4-[4-(3-methanesulfonyl-propoxy)-indol-1-yl]-pyrimidin-2-ylamino}-cyclohexyl)-methanone]"
245 to 250,–,"C[C@@H]1CN(C(=O)[C@H]2CC[C@H](Nc3nccc(-n4ncc5c(OCCCS(C)(=O)=O)cccc54)n3)CC2)CCN1 (as salt: HCl) [Compound 24, (4-{4-[4-(3-Methanesulfonyl-propoxy)-indazol-1-yl]-pyrimidin-2-ylamino}-cyclohexyl)-((R)-3-methyl-piperazin-1-yl)-methanone]"
–,116,"CCN1CCC[C@@H](NC(=O)[C@H]2CC[C@H](Nc3nccc(-n4ccc5c(OCCCS(C)(=O)=O)cccc54)n3)CC2)C1 (stereo in doubt) [Compound 17, 4-{4-[4-(3-Methanesulfonyl-propoxy)-indol-1-yl]-pyrimidin-2-ylamino}-cyclohexanecarboxylic acid ((S)-1-ethyl-piperidin-3-yl)-amide]"
160 to 162,–,"CCN1CC[C@H](NC(=O)[C@H]2CC[C@H](Nc3nccc(-n4ccc5c(OCCCS(C)(=O)=O)cccc54)n3)CC2)C1 (as salt: HCl) [Compound 13, 4-{4-[4-(3-Methanesulfonyl-propoxy)-indol-1-yl]-pyrimidin-2-ylamino}-cyclohexanecarboxylic acid ((S)-1-ethyl-pyrrolidin-3-yl)-amide]"
–,97.7,"CCN1CCC[C@@H]1CNC(=O)[C@H]1CC[C@H](Nc2nccc(-n3ccc4c(OCCCS(C)(=O)=O)cccc43)n2)CC1 [Compound 31, 4-{4-[4-(3-Methanesulfonyl-propoxy)-indol-1-yl]-pyrimidin-2-ylamino}-cyclohexanecarboxylic acid ((R)-1-ethyl-pyrrolidin-2-ylmethyl)-amide]"
–,164,"CCCN1CC[C@@H](NC(=O)[C@H]2CC[C@H](Nc3nccc(-n4ccc5c(OCCCS(C)(=O)=O)cccc54)n3)CC2)C1 [Compound 11, 4{4-[4-(3-Methanesulfonyl-propoxy)-indol-1-yl]-pyrimidin-2-ylamino}-cyclohexanecarboxylic acid ((R)-1-propyl-pyrrolidin-3-yl)-amide]"
–,19.4,"CCN1CCN(C(=O)[C@H]2CC[C@H](Nc3nccc(-n4ccc5c(OCC6CCS(=O)(=O)C6)cccc54)n3)CC2)C[C@@H]1C (stereo partly drawn) [Compound 9, (4-{4-[4-(1,1-Dioxo-tetrahydro-1λ^6-thiophen-3-ylmethoxy)-indol-1-yl]-pyrimidin-2-ylamino}-cyclohexyl)-((S)-4-ethyl-3-methyl-piperazin-1-yl)-methanone]"
–,73.4,"CCOC(=O)[C@@H]1CCCN(C(=O)[C@H]2CC[C@H](Nc3nccc(-n4ccc5c(OCCCS(C)(=O)=O)cccc54)n3)CC2)C1 [Compound 2, (R)-1-(4-{4-[4-(3-Methanesulfonyl-propoxy)-indol-1-yl]-pyrimidin-2-ylamino}-cyclohexanecarbonyl)-piperidine-3-carboxylic acid ethyl ester]"
–,97.8,"CC1(C)CN(C(=O)[C@H]2CC[C@H](Nc3nccc(-n4ccc5c(OCC6CCS(=O)(=O)C6)cccc54)n3)CC2)CCN1 (some centres unmarked) [Compound 28, (3,3-Dimethyl-piperazin-1-yl)-(4-{4-[4-(1,1-dioxo-tetrahydro-1λ^6-thiophen-3-ylmethoxy)-indol-1-yl]-pyrimidin-2-ylamino}-cyclohexyl)-methanone]"
–,45.9,"CCN1CCN(C(=O)[C@H]2CC[C@H](Nc3nccc(-n4ccc5c(OCC6CCS(=O)(=O)C6)cccc54)n3)CC2)C[C@H]1C (stereo partly drawn) [Compound 3, (4-{4-[4-(1,1-Dioxo-tetrahydro-1λ^6-thiophen-3-ylmethoxy)-indol-1-yl]-pyrimidin-2-ylamino}-cyclohexyl)-((R)-4-ethyl-3-methyl-piperazin-1-yl)-methanone]"
–,85.4,"CCN1CCC[C@H]1CNC(=O)[C@H]1CC[C@H](Nc2nccc(-n3ccc4c(OCCCS(C)(=O)=O)cccc43)n2)CC1 [Compound 30, 4-{4-[4-(3-Methanesulfonyl-propoxy)-indol-1-yl]-pyrimidin-2-ylamino}-cyclohexanecarboxylic acid ((S)-1-ethyl-pyrrolidin-2-ylmethyl)-amide]"
–,336,"CCN1CC[C@H](NC(=O)[C@H]2CC[C@H](Nc3nccc(-n4ccc5c(OCCCS(C)(=O)=O)cccc54)n3)CC2)C1 [Compound 13, 4-{4-[4-(3-Methanesulfonyl-propoxy)-indol-1-yl]-pyrimidin-2-ylamino}-cyclohexanecarboxylic acid ((S)-1-ethyl-pyrrolidin-3-yl)-amide]"
–,79.6,"CN(CC1CCCCN1C)C(=O)[C@H]1CC[C@H](Nc2nccc(-n3ccc4c(OCCCS(C)(=O)=O)cccc43)n2)CC1 (some centres unmarked) [Compound 19, 4-{4-[4-(3-Methanesulfonyl-propoxy)-indol-1-yl]-pyrimidin-2-ylamino}-cyclohexanecarboxylic acid methyl-(1-methyl-piperidin-2-ylmethyl)-amide]"
–,45.8,"C[C@H]1CN(C(=O)[C@H]2CC[C@H](Nc3nccc(-n4ncc5c(OCC6CCS(=O)(=O)C6)cccc54)n3)CC2)CCN1 (stereo partly drawn) [Compound 25, (4-{4-[4-(1,1-Dioxo-tetrahydro-1λ^6-thiophen-3-ylmethoxy)-indazol-1-yl]-pyrimidin-2-ylamino}-cyclohexyl)-((S)-3-methyl-piperazin-1-yl)-methanone]"

Structure (SMILES),melting point [°C],IC50 [1] [nM]
"CCOC1CC2CCC(C1)N2C(=O)[C@H]1CC[C@H](Nc2nccc(-n3ccc4c(OCCCS(C)(=O)=O)cccc43)n2)CC1 (some centres unmarked) [Compound 26, (3-Ethoxy-8-aza-bicyclo[3.2.1]oct-8-yl)-(4-{4-[4-(3-methanesulfonyl-propoxy)-indol-1-yl]-pyrimidin-2-ylamino}-cyclohexyl)-methanone; compound with formic acid]",–,89.4
CN1C2CCC1CN(C(=O)[C@H]1CC[C@H](Nc3nccc(-n4ccc5c(OCCCS(C)(=O)=O)cccc54)n3)CC1)C2 [Compound 22],–,99.8
